This note sets out measurements from ChEMBL document CHEMBL5230153, “Bitopic Sigma 1 Receptor Modulators to Shed Light on Molecular Mechanisms Underpinning Ligand Binding and Receptor Oligomerization” (J Med Chem, 2021).

The target in data set [1] is Sigma non-opioid intracellular receptor 1 (Cavia porcellus, UniProt Q60492). Put plainly: Displacement of [3H](+)-pentazocine from sigma 1 receptor in guinea pig brain membranes measured after 120 mins by scintillation counting method. It counts as cell membranes, Membrane. A general note: Displacement assays read how much labelled ligand stays bound in the presence of the test substance.

Data set [2] concerns PC-12. Put plainly: Cytotoxicity against rat PC-12 cells assessed as cell death at 0.25 uM after 72 hrs incubation by LDH-based cytotoxic assay. It counts as toxicity. The following applies: pc-12, 72 h.
Data set [3] has as its system PC-12. Put plainly: Neuroprotective activity in rat PC-12 cells assessed as increase in NGF-mediated neurite outgrowth by measuring differentiated cells at 5 to 250 nM incubated for 72 hrs by bright-field microscopic analysis. In kind it is functional, cell-based. The following applies: dose 5-250 nM.
For data set [4], the system named is PC-12. Put plainly: Neuroprotective activity in rat PC-12 cells assessed as increase in NGF-mediated neurite outgrowth by measuring differentiated cells at 5 to 250 nM in presence of 1 uM NE-100 incubated for 72 hrs by bright-field microscopic analysis. It counts as functional, cell-based. The following applies: dose 5-250 nM.
The target in data set [5] is Sigma non-opioid intracellular receptor 1 (Cavia porcellus) (UniProt Q60492). Put plainly: Displacement of [3H](+)-pentazocine from sigma 1 receptor in guinea pig brain membranes measured after 120 mins by scintillation counting method relative to control. The following applies: Membrane. In kind it is cell membranes.

Calls of active or inactive are those of the source. The rule behind the calls is not given here.

Sigma non-opioid intracellular receptor 1, sequence (Q60492 whole entry): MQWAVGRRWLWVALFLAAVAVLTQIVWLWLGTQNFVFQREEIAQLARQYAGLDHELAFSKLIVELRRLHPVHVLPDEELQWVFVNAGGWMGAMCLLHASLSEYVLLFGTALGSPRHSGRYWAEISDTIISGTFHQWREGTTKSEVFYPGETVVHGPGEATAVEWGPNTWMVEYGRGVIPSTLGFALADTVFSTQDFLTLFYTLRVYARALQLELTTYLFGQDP
Sigma non-opioid intracellular receptor 1 (Cavia porcellus), sequence (Q60492 whole entry): as above

One may read the Ki as a measure of affinity in units of concentration, obtained from inhibition or displacement. Low values mean a stronger hold on the target, high ones a looser hold on the target. Molecule `C[C@H](CCN1CCC(NC(=O)CCCCCC(=O)NC2CCN(CC[C@@H](C)c3ccc(-c4ccccc4)cc3)CC2)CC1)c1ccc(-c2ccccc2)cc1` returned a Ki in data set [1] of 1300 nM.

`C[C@H](CCN1CCC(NC(=O)CCCC(=O)NC2CCN(CC[C@@H](C)c3ccc(-c4ccccc4)cc3)CC2)CC1)c1ccc(-c2ccccc2)cc1` gave a Ki in data set [1] of 622 nM. This Ki is about 2.1-fold lower than that of the molecule before.

`CC(=O)NC1CCN(CC[C@@H](C)c2ccc(-c3ccccc3)cc2)CC1`: in the data set on PC-12 [2], the Activity result is “Non-Toxic”. For the same molecule, the outcome in the data set with PC-12 [3] was Active. The affinity in data set [1], expressed as Ki, was 11 nM. For the same molecule, the result in the data set on PC-12 [4] was inactive.

Take `C[C@H](CCN1CCC(NC(=O)COCCOCC(=O)NC2CCN(CC[C@@H](C)c3ccc(-c4ccccc4)cc3)CC2)CC1)c1ccc(-c2ccccc2)cc1`: the Activity result in the data set on PC-12 [2] is reported as “Non-Toxic”. Besides, in the data set on PC-12 [3], the outcome was Active. In addition, the Ki in data set [1] came out at 2.6 nM. For the same molecule, in the data set with PC-12 [4], the outcome was inactive.

Take `C[C@H](CCN1CCC(NC(=O)CC(=O)NC2CCN(CC[C@@H](C)c3ccc(-c4ccccc4)cc3)CC2)CC1)c1ccc(-c2ccccc2)cc1`: the Activity result in the data set with PC-12 [2] was “Non-Toxic”. The result in the data set on PC-12 [3] was Active. Besides, the Ki in data set [1] is 200 nM. For the same molecule, the result in the data set with PC-12 [4] was inactive.

As for `C[C@H](CCN1CCC(NC(=O)COCCOCCOCCOCCNC(=O)c2ccccc2)CC1)c1ccc(-c2ccccc2)cc1`, the affinity in data set [1] corresponds to a Ki of 1600 nM.

As to `C[C@H](CCN1CCCCC1)c1ccc(-c2ccccc2)cc1`, the Activity result in the data set on PC-12 [2] was “Non-Toxic”. For the same molecule, the outcome in the data set on PC-12 [3] was Active. In the data set on PC-12 [4], the result was inactive.

Turning to `C[C@H](CCN1CCC(NC(=O)CCOCCOCCOCCOCCOCCOCCOCCOCCOCCC(=O)NC2CCN(CC[C@@H](C)c3ccc(-c4ccccc4)cc3)CC2)CC1)c1ccc(-c2ccccc2)cc1`, in data set [1], the affinity, expressed as Ki, was 799 nM. In other words, the sub-micromolar range.

With `C[C@H](CCN1CCC(NC(=O)c2ccccc2C(=O)NC2CCN(CC[C@@H](C)c3ccc(-c4ccccc4)cc3)CC2)CC1)c1ccc(-c2ccccc2)cc1`, the Ki in data set [1] worked out at 134 nM.

Broadly, the inhibition is the drop in the measured response relative to a control, in per cent. The low end stands for little suppression, the high end for strong suppression. `C[C@H](CCN1CCC(NC(=O)COCC(=O)NC2CCN(CC[C@@H](C)c3ccc(-c4ccccc4)cc3)CC2)CC1)c1ccc(-c2ccccc2)cc1` came in with an inhibition in data set [5] of 0%.
